Results taken from ChEMBL document CHEMBL1146797, “Design, synthesis, and biological evaluation of novel T-Type calcium channel antagonists” (Bioorg Med Chem Lett, 2004).

What was measured:
Jurkat [1] = experiment: Inhibition of calcium influx in jurkat (T cells).; format: functional, cell-based; settings: Homo sapiens
Jurkat [2] = experiment: Inhibition of cellular proliferation in jurkat (T cells).; format: functional, cell-based; settings: Homo sapiens
MDA-MB-361 [3] = experiment: Inhibition of calcium influx in MDA-361 (breast) tumor cells.; format: functional, cell-based; settings: Homo sapiens
MDA-MB-361 [4] = experiment: Inhibition of cellular proliferation in MDA-361 (breast) tumor cells.; format: functional, cell-based; settings: Homo sapiens
LNCaP [5] = experiment: (§1) Inhibition of calcium influx in LNCaP (prostate).; format: functional, cell-based; settings: Homo sapiens, Prostate gland
LNCaP [6] = experiment: Inhibition of cellular proliferation in LNCaP (prostate).; format: functional, cell-based; settings: Homo sapiens
LNCaP [7] = experiment: as §1; format: functional, cell-based, Homo sapiens, Prostate gland

Row | Structure (SMILES) | IC50 (Jurkat [1]) [µM] | IC50 (Jurkat [2]) [µM] | IC50 (MDA-MB-361 [3]) [µM] | IC50 (MDA-MB-361 [4]) [µM] | IC50 (LNCaP [5]) [µM] | IC50 (LNCaP [6]) [µM] | IC50 (LNCaP [7])
1 | COc1ccc(CCCN2CCC[C@H]2COC(c2ccccc2)c2ccc(Cl)cc2)cc1 (some centres undefined) | 1 | 4 | 10 | 11 | 30 | 3.5 | 
2 | Oc1ccc(CCN2CCC[C@H]2COC(c2ccccc2)c2ccc(Cl)cc2)cc1 (some centres undefined) | 10 | 6 | 30 | 11 | 10 | 3 | 
3 | COc1ccc(CCN2CCC[C@H]2COC(c2ccccc2)c2ccc(Cl)c(Cl)c2)cc1 (some centres undefined) | 3 | 6 | 10 | 11 | 10 | 4 | 
4 | COc1ccc(CCN2CCC[C@H]2COC(c2ccc(OC)cc2)c2ccc(OC)cc2)cc1 | 15 | 13 | 20 | 15 | 10 | 5.1 | 
5 | CN1CCC[C@H]1COC(c1ccccc1)c1ccc(Cl)cc1 (some centres undefined) | 30 | 60 | 100 | 47 | 50 | 17 | 
6 | COc1ccc(CCN2CCC[C@H]2COC(c2ccccc2)c2ccc(Br)cc2)cc1 (some centres undefined) | 30 | 40 | 100 |  | 15 | 15 | 
7 | COc1ccc(CCN2CCC[C@H]2COCc2ccc(Cl)cc2)cc1 | 25 | 18 | 100 | 15 | 10 | 14 | 
8 | COc1ccc(CCN2CCCCC2COC(c2ccc(Cl)cc2)c2ccc(Cl)cc2)cc1 (centres undefined) | 15 | 9 | 30 | 22 | 7 | 4 | 
9 | COc1ccc(CN2CCC[C@H]2COC(c2ccccc2)c2ccc(Cl)cc2)cc1 (some centres undefined) | 2 | 10 | 30 | 30 |  | 7.7 | No effect
10 | COc1ccc(CCN2CCC[C@H]2COC(c2ccc(C)cc2)c2ccc(C)cc2)cc1 | 3 | 11 | 20 | 40 | 5 | 6 | 
11 | COc1ccc(CCN2CCC[C@H]2COC(c2ccc(F)cc2)c2ccc(F)cc2)cc1 | 3 | 5 | 30 | 14 | 10 | 4 | 
12 | COc1ccc(CCN2CCCC(COC(c3ccccc3)c3ccc(Cl)cc3)C2)cc1 (centres undefined) | 10 | 8.8 | 30 | 13 | 12 | 6.8 | 
13 | COc1ccc(CCN2CCC[C@H]2COC(c2ccccc2)c2ccc(F)cc2)cc1 (some centres undefined) | 3 | 13 | 20 | 14 | 10 | 2 | 
14 | COc1ccccc1CCN1CCC[C@H]1COC(c1ccccc1)c1ccc(Cl)cc1 (some centres undefined) | 1 | 3.8 | 10 | 13 | 12 | 2.4 | 

More lines, in order of falling IC50 (Jurkat [2]), values ahead:

Row | IC50 (Jurkat [1]) [µM] | IC50 (Jurkat [2]) [µM] | IC50 (MDA-MB-361 [3]) [µM] | IC50 (MDA-MB-361 [4]) [µM] | IC50 (LNCaP [5]) [µM] | IC50 (LNCaP [6]) [µM] | IC50 (LNCaP [7]) | Structure (SMILES)
15 | 100 | 108 | 20 | 83 | 100 | 33 |  | COc1ccc(CCN2CCC[C@H]2COCc2ccccc2)cc1
16 | 8 | 13.8 | 30 | 17.7 | 15 | 9.2 |  | COc1ccc(CCN2CCCC(COC(c3ccccc3)c3ccccc3)C2)cc1 (centres undefined)
17 | 10 | 12 | 30 | 29 | 30 | 10 |  | COc1ccc(CCN2CCC[C@H]2COC(c2ccccc2)c2ccccc2)cc1
18 | 10 | 11.1 | 20 | 7.1 | 10 | 3.4 |  | COc1ccc(CCN2CCC(COC(c3ccc(Cl)cc3)c3ccc(Cl)cc3)CC2)cc1
19 | 3 | 11 | 30 | 25 | 10 | 5 |  | COc1ccc(CCN2CCCCC2COC(c2ccccc2)c2ccc(Cl)cc2)cc1 (centres undefined)
20 | < 1 | 11 | 3 | 27 | 30 | 8 |  | Clc1ccc(C(OC[C@@H]2CCCN2CCc2ccccc2)c2ccccc2)cc1 (some centres undefined)
21 | 10 | 9.6 | 30 | 13 | 5 | 5 |  | COc1ccc(CCN2CCCC(COC(c3ccc(Cl)cc3)c3ccc(Cl)cc3)C2)cc1 (centres undefined)
22 | 7 | 8.4 | 25 | 10.4 | 5 | 3.3 |  | COc1ccc(CCN2CCC(COC(c3ccccc3)c3ccc(Cl)cc3)CC2)cc1 (centres undefined)
23 | 20 | 8.3 | 30 | 10 | 15 | 5 |  | COc1ccc(CCN2CCC(COC(c3ccccc3)c3ccccc3)CC2)cc1
24 |  | 6 | 10 | 10 | 4 | 4 |  | COc1ccc(CCN2CCC[C@H]2COC(c2ccccc2)c2ccc(Cl)cc2)cc1 (some centres undefined)
25 | 3 | 5 | 30 | 29 | 10 | 3.2 |  | COc1cccc(CCN2CCC[C@H]2COC(c2ccccc2)c2ccc(Cl)cc2)c1 (some centres undefined)
26 | 5 | 3.6 | 25 | 11 | 4 | 3 |  | COc1ccc(CCN2CCC[C@H]2COC(c2ccc(Cl)cc2)c2ccc(Cl)cc2)cc1
